The results in this text go back to EP0313782A2, “Antimycotic preparations” (BAYER AG, priority 1987, dated 1989).

The subject of this experiment is Candida-Zellen. Description: Antimycotic in vivo efficacy (oral) in mouse candidiasis. To be noted: for Wirkung: mice infected i.v. with 1 - 2 x 10⁶ Candida cells, oral treatment 1 h before and 7 h after infection, 10 - 100 mg/kg each, survivors on day 6 p.i. (untreated controls about 5 %); for Wirkung (comparison with the known compounds (A) and (B)): same test, statement in words in the text. More on the design: species or system Mäuse vom Typ SPF-CF₁. As to the method:
Antimykotische in-vivo-Wirksamkeit (oral) bei Mäusecandidose
Mäuse vom Typ SPF-CF₁ wurden intravenös mit 1 - 2 x 10⁶ logarithmisch wachsenden Candida-Zellen, die in physiologischer Kochsalzlösung suspendiert werden, infiziert. Eine Stunde vor und sieben Stunden nach der Infektion werden die Tiere mit jeweils 10 - 100 mg/kg Körpergewicht der Präparate oral behandelt.
Unbehandelte Tiere starben 3 bis 6 Tage post infektionem. Die Überlebensrate am 6.Tag post infektionem betrug bei unbehandelten Kontrolltieren etwa 5 %.

Consider `OC(Cn1cncn1)(c1ccc(F)cc1F)C1(SC(F)(F)F)CC1` (stereo not drawn) [I-1, 1-(2,4-Difluorphenyl)-1-hydroxy-2-(1,2,4-triazol-1-yl)-1-(1-trifluormethylmercapto-cycloprop-1-yl)-ethan], for which the Wirkung entry was “+++++ (sehr gute Wirkung = 90 % Überlebende am 6.Tag.p.i.)”; the “Wirkung (comparison with the known compounds (A) and (B))” value was “bessere Wirkung”.

On to `OC(Cn1cncn1)(c1ccc(F)cc1)C1(SC(F)(F)F)CC1` (stereo not drawn) [I-4], for which the Wirkung result is on record as “+++++ (sehr gute Wirkung = 90 % Überlebende am 6.Tag.p.i.)”; the “Wirkung (comparison with the known compounds (A) and (B))” value is listed as “bessere Wirkung”.

Take `[O-][S+](C(F)(F)F)C1(C(O)(Cn2cncn2)c2ccc(F)cc2F)CC1` (stereo not drawn) [I-2, 1-(2,4-Difluorphenyl)-1-hydroxy-2-(1,2,4-triazol-1-yl)-1-(trifluormethylsulfoxy-cycloprop-1-yl)-ethan]: the Wirkung result was “+++++ (sehr gute Wirkung = 90 % Überlebende am 6.Tag.p.i.)”; the “Wirkung (comparison with the known compounds (A) and (B))” value was “bessere Wirkung”.
